Measured values: PubChem BioAssay (NCI)
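Protocol summary: plate cells (96-well), add compound at 5 concentrations, incubate 48 h, interpolate endpoints linearly. Definition used: TGI = concentration required for complete inhibition of growth.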

Key:
Assay in all cases: NCI tumour cell line growth inhibition, 48 h
NCI-H23 lung = system: NCI-H23 lung
SF-539 CNS = system: SF-539 CNS
SF-295 CNS = system: SF-295 CNS
SK-MEL-2 melanoma = system: SK-MEL-2 melanoma
LXFL 529 NSCLC = system: LXFL 529 NSCLC
MOLT-4 leukemia = system: MOLT-4 leukemia
UACC-62 melanoma = system: UACC-62 melanoma
OVCAR-8 ovarian = system: OVCAR-8 ovarian
RPMI-8226 leukemia = system: RPMI-8226 leukemia
SK-MEL-28 melanoma = system: SK-MEL-28 melanoma
IGROV1 ovarian = system: IGROV1 ovarian
HOP-18 NSCLC = system: HOP-18 NSCLC
HT29 colon = system: HT29 colon
HCT-15 colon = system: HCT-15 colon
HCT-116 colon = system: HCT-116 colon
SR leukemia = system: SR leukemia
U251 CNS = system: U251 CNS
ACHN renal = system: ACHN renal
M19-MEL melanoma = system: M19-MEL melanoma
SF-268 CNS = system: SF-268 CNS
M14 melanoma = system: M14 melanoma
HOP-62 NSCLC = system: HOP-62 NSCLC
CCRF-CEM leukemia = system: CCRF-CEM leukemia
COLO 205 colon = system: COLO 205 colon
SNB-78 CNS = system: SNB-78 CNS
SNB-75 CNS = system: SNB-75 CNS
K-562 leukemia = system: K-562 leukemia
786-0 renal = system: 786-0 renal
SK-OV-3 ovarian = system: SK-OV-3 ovarian
HL-60(TB) leukemia = system: HL-60(TB) leukemia
HOP-92 NSCLC = system: HOP-92 NSCLC
NCI-H522 lung = system: NCI-H522 lung
DMS 273 small cell lung = system: DMS 273 small cell lung
NCI-H226 lung = system: NCI-H226 lung
SN12C renal = system: SN12C renal
TK-10 renal = system: TK-10 renal
MALME-3M melanoma = system: MALME-3M melanoma
DLD-1 colon = system: DLD-1 colon
SW-620 colon = system: SW-620 colon
UACC-257 melanoma = system: UACC-257 melanoma
RXF 393 renal = system: RXF 393 renal
UO-31 renal = system: UO-31 renal
OVCAR-4 ovarian = system: OVCAR-4 ovarian
A549 NSCLC = system: A549 NSCLC
SK-MEL-5 melanoma = system: SK-MEL-5 melanoma
NCI-H460 lung = system: NCI-H460 lung
OVCAR-5 ovarian = system: OVCAR-5 ovarian
LOX IMVI melanoma = system: LOX IMVI melanoma
KM12 colon = system: KM12 colon
HCC-2998 colon = system: HCC-2998 colon
HS 578T breast = system: HS 578T breast
MDA-MB-435 = system: MDA-MB-435
MCF7 breast = system: MCF7 breast
DU-145 prostate = system: DU-145 prostate
A498 renal = system: A498 renal
OVCAR-3 ovarian = system: OVCAR-3 ovarian
BT-549 breast = system: BT-549 breast
CAKI-1 renal = system: CAKI-1 renal
SNB-19 CNS = system: SNB-19 CNS
PC-3 prostate = system: PC-3 prostate
EKVX NSCLC = system: EKVX NSCLC
NCI/ADR-RES ovarian = system: NCI/ADR-RES ovarian
T-47D breast = system: T-47D breast
MDA-N = system: MDA-N
MDA-MB-231 breast = system: MDA-MB-231 breast

N#CC(NNC(=O)Cc1ccccc1)c1ccc([N+](=O)[O-])cc1 (stereo not drawn)
TGI (NCI-H23 lung): > 100 µM
TGI (SF-539 CNS): > 100 µM
TGI (SF-295 CNS): > 100 µM
TGI (SK-MEL-2 melanoma): > 100 µM
TGI (LXFL 529 NSCLC): > 100 µM
TGI (MOLT-4 leukemia): > 100 µM
TGI (UACC-62 melanoma): > 100 µM
TGI (OVCAR-8 ovarian): > 100 µM
TGI (RPMI-8226 leukemia): > 100 µM
TGI (SK-MEL-28 melanoma): > 100 µM
TGI (IGROV1 ovarian): > 100 µM
TGI (HOP-18 NSCLC): > 100 µM
TGI (HT29 colon): > 100 µM
TGI (HCT-15 colon): > 100 µM
TGI (HCT-116 colon): > 100 µM
TGI (SR leukemia): > 100 µM
TGI (U251 CNS): > 100 µM
TGI (ACHN renal): > 100 µM
TGI (M19-MEL melanoma): > 100 µM
TGI (SF-268 CNS): > 100 µM
TGI (M14 melanoma): > 100 µM
TGI (HOP-62 NSCLC): > 100 µM
TGI (CCRF-CEM leukemia): > 100 µM
TGI (COLO 205 colon): > 100 µM
TGI (SNB-78 CNS): > 100 µM
TGI (SNB-75 CNS): > 100 µM
TGI (K-562 leukemia): > 100 µM
TGI (786-0 renal): > 100 µM
TGI (SK-OV-3 ovarian): > 100 µM
TGI (HL-60(TB) leukemia): > 100 µM
TGI (HOP-92 NSCLC): > 100 µM
TGI (NCI-H522 lung): > 100 µM
TGI (DMS 273 small cell lung): > 100 µM
TGI (NCI-H226 lung): > 100 µM
TGI (SN12C renal): > 100 µM
TGI (TK-10 renal): > 100 µM
TGI (MALME-3M melanoma): > 100 µM
TGI (DLD-1 colon): > 100 µM
TGI (SW-620 colon): > 100 µM
TGI (UACC-257 melanoma): > 100 µM
TGI (RXF 393 renal): > 100 µM
TGI (UO-31 renal): > 100 µM
TGI (OVCAR-4 ovarian): > 100 µM
TGI (A549 NSCLC): > 100 µM
TGI (SK-MEL-5 melanoma): > 100 µM
TGI (NCI-H460 lung): > 100 µM
TGI (OVCAR-5 ovarian): > 100 µM
TGI (LOX IMVI melanoma): > 100 µM
TGI (KM12 colon): > 100 µM

CC(=O)Nc1ccc(S(=O)(=O)c2nnc(NC(C)=O)s2)cc1
TGI (NCI-H23 lung): > 100 µM
TGI (SF-539 CNS): > 100 µM
TGI (HCC-2998 colon): > 100 µM
TGI (SF-295 CNS): > 100 µM
TGI (SK-MEL-2 melanoma): > 100 µM
TGI (MOLT-4 leukemia): > 100 µM
TGI (UACC-62 melanoma): > 100 µM
TGI (OVCAR-8 ovarian): > 100 µM
TGI (RPMI-8226 leukemia): > 100 µM
TGI (SK-MEL-28 melanoma): > 100 µM
TGI (IGROV1 ovarian): > 100 µM
TGI (HT29 colon): > 100 µM
TGI (HS 578T breast): > 100 µM
TGI (HCT-15 colon): > 100 µM
TGI (HCT-116 colon): > 100 µM
TGI (SR leukemia): > 100 µM
TGI (U251 CNS): > 100 µM
TGI (MDA-MB-435): > 100 µM
TGI (ACHN renal): > 100 µM
TGI (SF-268 CNS): > 100 µM
TGI (M14 melanoma): > 100 µM
TGI (HOP-62 NSCLC): > 100 µM
TGI (MCF7 breast): > 100 µM
TGI (CCRF-CEM leukemia): > 100 µM
TGI (DU-145 prostate): > 100 µM
TGI (A498 renal): > 100 µM
TGI (COLO 205 colon): 0.537 µM
TGI (SNB-75 CNS): > 100 µM
TGI (K-562 leukemia): > 100 µM
TGI (786-0 renal): > 100 µM
TGI (OVCAR-3 ovarian): > 100 µM
TGI (SK-OV-3 ovarian): > 100 µM
TGI (HL-60(TB) leukemia): > 100 µM
TGI (BT-549 breast): > 100 µM
TGI (CAKI-1 renal): > 100 µM
TGI (HOP-92 NSCLC): > 100 µM
TGI (NCI-H522 lung): > 100 µM
TGI (SNB-19 CNS): > 100 µM
TGI (PC-3 prostate): > 100 µM
TGI (NCI-H226 lung): > 100 µM
TGI (SN12C renal): > 100 µM
TGI (TK-10 renal): > 100 µM
TGI (EKVX NSCLC): > 100 µM
TGI (MALME-3M melanoma): > 100 µM
TGI (SW-620 colon): > 100 µM
TGI (NCI/ADR-RES ovarian): > 100 µM
TGI (T-47D breast): > 100 µM
TGI (UACC-257 melanoma): > 100 µM
TGI (RXF 393 renal): > 100 µM
TGI (UO-31 renal): > 100 µM
TGI (OVCAR-4 ovarian): > 100 µM
TGI (MDA-N): > 100 µM
TGI (MDA-MB-231 breast): > 100 µM
TGI (A549 NSCLC): > 100 µM
TGI (SK-MEL-5 melanoma): > 100 µM
TGI (NCI-H460 lung): > 100 µM
TGI (OVCAR-5 ovarian): > 100 µM
TGI (LOX IMVI melanoma): > 100 µM
TGI (KM12 colon): > 100 µM
